{
  "source": "patent US20050118226A1",
  "about": "“Methods for treating ACAT-related diseases” (priority 2003, published 2005)",
  "key": {"ACAT": {"system": "ACAT", "assay": "Cholesterol determinations in hAPP mice treated two months with CP-113,818 pellets", "assay_type": "in vivo, mouse", "settings": "7.2 mg/kg/day, 57 days", "from_the_text": "hAPP transgenic mice overexpress human APP751 with the London (V717I) and Swedish (K670M/N671L) mutations under the regulatory control of the neuron specific murine (m)Thy-1 promoter (mThy-1-hAPP751; heterozygous with respect to the transgene, on a C57BL/6 F3 background) (Rockenstein et al., 2001). The hAPP colony was sustained by crossing transgenic APP751 with C57BL/6 (Harlan Winkelman, Germany). Corresponding littermates were used for control studies. All mice were housed according to standard animal care protocols, fed ad libitum with standard chow diet, and maintained in a pathogen-free environment in single ventilated cages at JSW Research. The transgenic status of each animal was confirmed by real time PCR of tail snips using specific primers and the appropriate hybridization probe. A modified Irvine test was regularly performed prior to the experiment to assess the neurological status of the animals; those showing disturbances were excluded from the experiments. Mice were then randomly assigned to different treatment groups and individually coded. Investigators performing behavioral testing, biochemical analyzes and histomorphological evaluations of the brains were blinded in terms of group allocation of the mice. […]\nAnimals were sacrificed the day after the last MWM training, on day 57 of treatment. […] Hematoxylin and eosin stained 6-8 um sections were analyzed for evidence of CP-113,818 toxicity.\nTissues were homogenized in the presence of trypsin (10 mg/ml) in a Dounce homogenizer on ice. Protein concentration of the homogenate was determined using the BCA protein assay kit (Pierce). […] Dried lipid pellets were dissolved in water and total amount of cholesterol was determined with an enzymatic assay (Sigma; cat. no. 402-20). As control, free cholesterol was determined with a different enzymatic assay (R-Biopharm GmbH, Darmstadt, Germany; cat. no. E0139050). The amount of cholesteryl-esters was calculated by subtracting free from total cholesterol. […]"}, "γ-secretase": {"system": "γ-secretase", "assay": "In vitro generation of APP intracellular domain (AICD), γ-secretase activity assay on CHO cell membrane fractions", "assay_type": "biochemical, Chinese hamster", "settings": "CHO cell (overexpressing APP) membrane fractions, increasing amounts of compound", "protocol": "Membrane preparation and in vitro generation of AICD were performed as described (Gu et al., 2001; Kim et al., 2002). P2 membrane fractions were prepared from CHO cells overexpressing wild type APP and resuspended in Buffer H (20 mM HEPES, 150 mM NaCl, 10% glycerol, 5 mM EDTA, pH 7.4) with protease inhibitors. In vitro cleavage experiments were performed by incubating the membrane fractions at 0° C. or 37° C. for 1 hour with the indicated amounts of CP-113,818. As a negative control, a specific γ-secretase inhibitor, L-685,458, was added to one of the samples."}, "Aβ40": {"biological_target": "Aβ40 (Homo sapiens, UniProt P05067)", "sequence (P05067 672-711 limits assumed)": "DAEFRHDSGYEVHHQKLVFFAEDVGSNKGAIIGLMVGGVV", "assay": "Turbidity assay of Aβ40 aggregation", "settings": "10 μM, absorbance at 400 nm over four days", "protocol": "Aβ40 aggregation was monitored according to the method of Jarrett et al. (Jarrett et al., 1993). Briefly, Aβ40 (100 μg/ml) was incubated at 37° C. in TBS in a 384-well plate (60 μl/well). Well turbidity was monitored for four days by following absorbance at 400 nm. Aβ40 aggregation was promoted by the addition of “aged” (pre-incubated for 2 weeks at room temperature) Aβ42 (Aβ42/Aβ40=1/10) (Jarrett et al., 1993) or Zn/histine buffer (50 μM Zn++in 350 μM histine) (Bush et al., 1994). Absorbance of test wells was blanked on signal from samples without Aβ40. For some experiments, incubation buffers included CP-113,818 (10 μM)."}, "[1]": {"biological_target": "T1, purified recombinant human BACE1 (Homo sapiens, UniProt P56817)", "T1 construct": "purchased R&D systems", "T1 sequence (P56817 46-501)": "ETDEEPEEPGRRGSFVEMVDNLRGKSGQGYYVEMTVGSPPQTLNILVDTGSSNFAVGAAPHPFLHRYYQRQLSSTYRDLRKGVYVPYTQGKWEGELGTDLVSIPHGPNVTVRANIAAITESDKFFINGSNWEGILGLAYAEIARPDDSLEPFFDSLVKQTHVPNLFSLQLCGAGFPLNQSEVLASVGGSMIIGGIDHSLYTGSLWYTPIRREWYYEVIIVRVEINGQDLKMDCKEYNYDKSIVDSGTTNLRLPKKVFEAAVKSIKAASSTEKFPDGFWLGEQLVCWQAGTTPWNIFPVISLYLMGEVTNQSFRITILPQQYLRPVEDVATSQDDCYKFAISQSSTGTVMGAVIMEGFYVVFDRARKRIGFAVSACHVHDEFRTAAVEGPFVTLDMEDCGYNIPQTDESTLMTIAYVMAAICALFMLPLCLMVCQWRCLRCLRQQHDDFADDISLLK", "assay": "In vitro fluorometric BACE1 activity assay", "assay_type": "biochemical", "settings": "increasing amounts of compound, 2 hours", "protocol": "A fluorometric β-secretase activity kit was used for detecting BACE1 activity in vitro. Reaction was done according to the manufacturer's instructions with slight modifications. Briefly, 1 μg of purified recombinant human BACE1 (R&D systems) was resuspended in 10 μl of 1× cell extraction buffer (R&D systems) and incubated with EDANS/DABCYL-[…] substrate peptide in the absence or presence of indicated account of CP-113,818 for 2 hours. Released EDANS fluorescence was measured by a fluorescent plate reader (Analyst AD, LJL Biosystems). As a negative control, a specific β-secretase inhibitor, GL-189 (Calbiochem) was added to one of the samples with the indicated concentration."}},
  "note": "Entries after “also recorded” stand apart in the source; their conditions may differ.",
  "data": [
    {"smiles": "CCCCCCCC[C@H](SCCCCCC)C(=O)Nc1c(SC)cc(C)nc1SC", "note": "[CP-113,818]", "values": [
      {"measurement": "decrease of liver cholesterol", "setting": "ACAT", "result": 34, "unit": "%"},
      {"measurement": "decrease of liver cholesteryl-esters", "setting": "ACAT", "result": 87, "unit": "%"},
      {"measurement": "decrease of serum cholesterol", "setting": "ACAT", "result": 35, "unit": "%"},
      {"measurement": "effect on γ-secretase activity (AICD generation) in vitro", "setting": "γ-secretase", "result": "unaffected; also recorded: no direct effect"},
      {"measurement": "effect on metal- or Aβ42-mediated aggregation of Aβ40 in vitro", "setting": "Aβ40", "result": "failed to directly inhibit; also recorded: does not directly modulate"},
      {"measurement": "effect on BACE1 activity in vitro", "setting": "[1]", "result": "unaffected; also recorded: no direct effect"}
    ]}
  ]
}
